Laboratory results taken from US20070105825A1, “Concurrent drugs” (priority 2004, published 2007).

Tests used:
whole blood = experiment: Improvement effect on activated state of blood coagulation (activated whole blood clotting time, Hemochron); type: cell-based, rabbit (Japanese White, male); settings: rabbit whole blood; for significant prolonged effect on the activated whole blood clotting time to the control: independent use, 1 μM; for activated clotting time (mean ± S.E.): single application, antiplatelet drug 1 μM, control 218 ± 5.1
Protocol: Citrate blood collected from a rabbit (Japanese White, male) was used for the test as the whole blood after maintaining room temperature for 30-60 minutes. 376 μL of the whole blood, 4 μL of a dimethylsulfoxide and 20 μL of a 250 mM calcium chloride solution were poured into a test tube for measurement of activated whole blood clotting time (Hemochron test tube P214, International Technidyne Corporation). After slight stirring of the mixture, an activated whole blood clotting time was measured by a blood clotting meter (Hemochron 801, International Technidyne Corporation) as the control.

[1] = test system: thrombus formation in abdominal aorta of rats; experiment: Inhibitory effect on thrombus formation (FeCl2-induced abdominal aorta thrombus, total protein content); type: in vivo, rat (Sprague-Dawley, male); settings: rat; for significant inhibitory effects on the thrombus formation compared with group A as control: alone: cilostazol 100 mg/kg oral or compound Id 3 mg/kg subcutaneous; for Total protein amount in thrombus: single application, control 1.52 ± 0.39
Protocol: Rats (Sprague-Dawley rats, male) were divided into four groups of A, B, C and D. 0.5% methylcellulose solution was orally administrated into the rats of groups A and B, and cilostazol (100 mg/kg) was orally administrated into the rats of groups C and D. […] Simultaneously, the all rats of groups A-D were anesthetized by intraperitoneal injection of 5 mL/kg of 20% urethane solution. […] After removing of the filter paper, each rat was left at rest for additional 25 minutes. Then, the abdominal aorta was ligated at both upper and lower ends of the thrombus induction site. All the thrombus adhering to the inside of the excised abdominal aorta were harvested and dissolved in 1 mL of 0.5 N sodium hydroxide solution as the test solution. The total protein content in the test solution was measured using Coomasie Plus Protein Assay Kit (PIERCE Corp.) as the index of the thrombus formation.

| Structure (SMILES) | significant prolonged effect on the activated whole blood clotting time to the control (whole blood) | activated clotting time (mean ± S.E.) (whole blood) | significant inhibitory effects on the thrombus formation compared with group A as control [1] | Total protein amount in thrombus ([1]; cilostazol 100 mg/kg oral, n=3) | Total protein amount in thrombus ([1]; compound Id 3 mg/kg subcutaneous, n=4) |
| --- | --- | --- | --- | --- | --- |
| CC(=O)Oc1ccccc1C(=O)O [Aspirin, aspirin] | showed a significant prolonged effect | 215 ± 16.3 s | – | – | – |
| O=C1CCc2cc(OCCCCc3nnnn3C3CCCCC3)ccc2N1 [Cilostazol, cilostazol] | showed a significant prolonged effect | 205 ± 5.8 s | not observed | 1.39 ± 0.45 mg | – |
| CS(=O)(=O)c1ccccc1-c1ccc(CCNS(=O)(=O)c2cc(C(=N)N)ccc2O)c(OCC(=O)O)c1 [Compound Id] | – | – | not observed | – | 0.94 ± 0.30 mg |
| OCCN(CCO)c1nc(N2CCCCC2)c2nc(N(CCO)CCO)nc(N3CCCCC3)c2n1 [Dipyridamole, dipyridamole] | showed a significant prolonged effect | 210 ± 10.9 s | – | – | – |
